Test results taken from ChEMBL document CHEMBL1201862, “PubChem BioAssay data set” (2004).
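Results reflect a 48-hour exposure of cells in 96-well plates to compound at five concentrations. GI50: concentration for 50% inhibition of growth.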 Calls of active or inactive are those of the source. Rule as the data show it: active = GI50 up to about 1.1 µM and inactive = higher.

Experiments:
Test in all cases: inhibition of tumour cell growth, NCI panel, 48 h
[1] = tested on: A549
[2] = tested on: DU-145
[3] = tested on: EKVX
[4] = tested on: HCT-15
[5] = tested on: HOP-62
[6] = tested on: M14
[7] = tested on: MDA-MB-435
[8] = tested on: NCI-H23
[9] = tested on: NCI-H522
[10] = tested on: OVCAR-3
[11] = tested on: OVCAR-5
[12] = tested on: PC-3
[13] = tested on: SK-MEL-5
[14] = tested on: SR
[15] = tested on: SW-620
[16] = tested on: UACC-62
[17] = tested on: UO-31
[18] = tested on: MCF7
[19] = tested on: SN12C
[20] = tested on: MDA-MB-231

Row | SMILES | GI50 [1] | GI50 [2] | GI50 [3] | GI50 [4] [µM] | GI50 [5] | GI50 [6] | GI50 [7] | GI50 [8] | GI50 [9] | GI50 [10] | GI50 [11] | GI50 [12] | GI50 [13] | GI50 [14] | GI50 [15] | GI50 [16] | GI50 [17] | GI50 [18] | GI50 [19] | GI50 [20]
1 | COc1cc2cc(C(=O)N3CC(CCl)c4c3cc(O)c3ccccc43)[nH]c2c(OC)c1OC (stereo unspecified) | < 0.005 µM (active) | < 0.005 µM (active) | < 0.005 µM (active) | < 0.005 | < 0.005 µM (active) | < 0.005 µM (active) | < 0.005 µM (active) | < 0.005 µM (active) | < 0.005 µM (active) | < 0.005 µM (active) | < 0.005 µM (active) | < 0.005 µM (active) | < 0.005 µM (active) | < 0.005 µM (active) | < 0.005 µM (active) | < 0.005 µM (active) | < 0.005 µM (active) |  |  | 
2 | CCOC(=O)/C(=C\NCC(O)c1ccccc1)c1nc2ccccc2[nH]1 (stereo unspecified) | 33.7 µM (inactive) | 28.4 µM (inactive) | 21.3 µM (inactive) | 21.6 | 43.5 µM (inactive) | 30.4 µM (inactive) | 20.9 µM (inactive) | 18.1 µM (inactive) | 17.5 µM (inactive) | 34.7 µM (inactive) | 26.4 µM (inactive) |  | 11 µM (inactive) | 17.5 µM (inactive) | 31.4 µM (inactive) | 14.2 µM (inactive) | 0.103 µM (active) | 18.7 µM (inactive) | 31.9 µM (inactive) | 
3 | CCN(CC)C(=S)SS(=O)(=O)c1ccc(F)cc1 |  | 37.9 µM (inactive) | > 100 µM (inactive) | 66.7 | 40.6 µM (inactive) | 29.1 µM (inactive) | 38.9 µM (inactive) | 76.4 µM (inactive) | 0.0552 µM (active) | > 100 µM (inactive) | > 100 µM (inactive) |  | 7.41 µM (inactive) | 0.348 µM (active) | 17.9 µM (inactive) | 19.9 µM (inactive) | 27.7 µM (inactive) |  | 34.5 µM (inactive) | 32.4 µM (inactive)
4 | CC1CCC/C1=C(/I)C(=O)c1ccccc1 (stereo unspecified) | 98.2 µM (inactive) | > 100 µM (inactive) | > 100 µM (inactive) | > 100 | > 100 µM (inactive) | 59.3 µM (inactive) | 28.9 µM (inactive) | 74.5 µM (inactive) | 41.7 µM (inactive) |  | 18.5 µM (inactive) | > 100 µM (inactive) | 26.2 µM (inactive) | 30.8 µM (inactive) | 53.1 µM (inactive) | 86.7 µM (inactive) | > 100 µM (inactive) |  | > 100 µM (inactive) | 40.2 µM (inactive)
5 | CC1=CC(=C(c2ccc(N)c(C)c2)c2ccc(N)c(C)c2)C=CC1=N | 3.6 µM (inactive) |  | 4.89 µM (inactive) | 12.8 | 2.79 µM (inactive) | 4.95 µM (inactive) |  | 2.97 µM (inactive) | 3.03 µM (inactive) | 4.49 µM (inactive) | 5.42 µM (inactive) |  | 2.07 µM (inactive) | 2.99 µM (inactive) | 3.8 µM (inactive) | 2.69 µM (inactive) | 28.3 µM (inactive) |  | 0.33 µM (active) | 
6 | Cc1ccc(S(=O)(=O)N2CCN(S(=O)(=O)c3ccc(C)cc3)Cc3ccccc3C2)cc1 | 80.5 µM (inactive) | > 100 µM (inactive) | > 100 µM (inactive) | > 100 | 20.5 µM (inactive) | 33 µM (inactive) | 34.3 µM (inactive) | 57.5 µM (inactive) | 21.6 µM (inactive) | 56.8 µM (inactive) | > 10 µM (inactive) |  | 29.3 µM (inactive) | > 100 µM (inactive) | > 100 µM (inactive) | 10.1 µM (inactive) | > 100 µM (inactive) | 50.5 µM (inactive) | 53.2 µM (inactive) | > 100 µM (inactive)
7 | C=CCC1C(=O)CC2(C)CC(=O)C(CC=C)C12C (stereo unspecified) | > 100 µM (inactive) |  | > 100 µM (inactive) | > 100 | > 100 µM (inactive) | > 100 µM (inactive) |  | > 100 µM (inactive) | > 100 µM (inactive) | > 100 µM (inactive) | > 100 µM (inactive) |  | > 100 µM (inactive) | > 100 µM (inactive) | > 100 µM (inactive) | > 100 µM (inactive) | > 100 µM (inactive) |  | > 100 µM (inactive) | 
8 | O=[N+]([O-])c1cc(/C=N/NS(=O)(=O)c2ccc(F)cc2)c(O)c([N+](=O)[O-])c1 | 48 µM (inactive) |  | > 100 µM (inactive) | 26.5 | 43.2 µM (inactive) | 22.9 µM (inactive) |  | 24.9 µM (inactive) | 21.2 µM (inactive) | 29 µM (inactive) | > 100 µM (inactive) |  | 25.7 µM (inactive) | 18.4 µM (inactive) | 41.3 µM (inactive) | 46.3 µM (inactive) | > 100 µM (inactive) |  | 33.7 µM (inactive) | 
9 | O=C(/C=C/c1ccc2c(c1)OCO2)c1ccccc(=O)c1O |  | 17.3 µM (inactive) | 20.7 µM (inactive) | 3.85 | 20.9 µM (inactive) |  | 13.9 µM (inactive) |  | 9.62 µM (inactive) | 10.7 µM (inactive) |  | 21.5 µM (inactive) | 7.66 µM (inactive) | > 100 µM (inactive) | 12 µM (inactive) | 7.73 µM (inactive) | 13.6 µM (inactive) |  | 21.7 µM (inactive) | 37.9 µM (inactive)
10 | CN(C)CCNC(=O)Cn1cnc2cccc([N+](=O)[O-])c2c1=O | > 100 µM (inactive) | > 100 µM (inactive) | > 100 µM (inactive) | > 100 | > 100 µM (inactive) | > 100 µM (inactive) | > 100 µM (inactive) | > 100 µM (inactive) | > 100 µM (inactive) | > 100 µM (inactive) | > 100 µM (inactive) | > 100 µM (inactive) | > 100 µM (inactive) | > 100 µM (inactive) | > 100 µM (inactive) | > 100 µM (inactive) | > 100 µM (inactive) | > 100 µM (inactive) | > 100 µM (inactive) | 
11 | COC1=NC(NC2OCC(O)C(O)C2O)=C(NC(C)=O)CN1C (stereo unspecified) | > 100 µM (inactive) | > 100 µM (inactive) | > 100 µM (inactive) | > 100 |  | > 100 µM (inactive) | > 100 µM (inactive) | > 100 µM (inactive) | > 100 µM (inactive) | > 100 µM (inactive) | > 100 µM (inactive) |  | > 100 µM (inactive) |  | > 100 µM (inactive) | > 100 µM (inactive) | > 100 µM (inactive) | > 100 µM (inactive) |  | > 100 µM (inactive)
12 | CC1=CC(=O)c2ccc3c4ccccc4n(C)c3c2C1=O | 48.2 µM (inactive) | 63.2 µM (inactive) | > 19.8 µM (inactive) | 25.5 | 24.9 µM (inactive) | 17.8 µM (inactive) | 17.1 µM (inactive) | 14 µM (inactive) | 28.4 µM (inactive) | 54.8 µM (inactive) | > 100 µM (inactive) |  | 13.6 µM (inactive) |  | 92.3 µM (inactive) |  | > 65.9 µM (inactive) | 12 µM (inactive) | > 69 µM (inactive) | 70.6 µM (inactive)
